The assay has as its target T1, Human VPS34 (Homo sapiens, UniProt Q8NEB9).
T1 construct: GST (N); host or cells: SF9 insect cells (baculovirus)
The assay is described as follows: Human VPS34 Enzyme Assay (Adapta TR-FRET). The format is biochemical. The following applies: compound at 1.111 μM; read-out: Average VPS34 % INH @ 1.111 μM. On the procedure:
VPS34 (accession number GB:BC033004) was cloned into pDEST20-Thombin as N-terminal GST tagged fusion proteins using the Gateway system (Invitrogen, catalog#11804-013). The sequences were verified before recombinant protein expression using the Baculovirus Expression System with Gateway® Technology.
For expression VPS34 was infected at 1MOI in SF9 cells and harvested 72 hours post infection.
For purification, VPS34 is purified by Glutathione Sepharose 4 Fast Flow (GE Healthcare #17-5132-03) followed by HiTrap Q (GE Healthcare #17-1153-01).
Human VPS34 Enzyme Assay Method
100 nL compounds in DMSO are added to wells of a 384 well microtitre plate (Greiner 780076). At room temperature: 5 ul VPS34 reaction buffer (Invitrogen Assay Buffer Q (diluted 1 in 5 with nanopure water) plus 2 mM DTT and 2 mM MnCl2) containing ATP (20 uM, Promega) and 200 uM PI-PS substrate (Invitrogen PV5122) is added followed immediately by 5 ul VPS34 reaction buffer (as above) containing VPS34 (5 nM, Millennium Protein Sciences Group) and the mixture is incubated with shaking at room temperature for 1 hour. Then 5 ul VPS34 stop-detect mix (as per Invitrogen Adapta Assay kit (PV5009) instructions (contains kinase quench buffer, TR-FRET buffer, Adapta Eu anti-ADP antibody and Alexa Fluor 647 ADP tracer)) is added to quench the reaction. The plates are then incubated for 30 minutes at room temperature with shaking and then read on a BMG PheraStar Plus reader.
3) VPS34 is assayed using Adapta™ Universal Kinase Assay Kit (Invitrogen).

T1 sequence (Q8NEB9 whole entry): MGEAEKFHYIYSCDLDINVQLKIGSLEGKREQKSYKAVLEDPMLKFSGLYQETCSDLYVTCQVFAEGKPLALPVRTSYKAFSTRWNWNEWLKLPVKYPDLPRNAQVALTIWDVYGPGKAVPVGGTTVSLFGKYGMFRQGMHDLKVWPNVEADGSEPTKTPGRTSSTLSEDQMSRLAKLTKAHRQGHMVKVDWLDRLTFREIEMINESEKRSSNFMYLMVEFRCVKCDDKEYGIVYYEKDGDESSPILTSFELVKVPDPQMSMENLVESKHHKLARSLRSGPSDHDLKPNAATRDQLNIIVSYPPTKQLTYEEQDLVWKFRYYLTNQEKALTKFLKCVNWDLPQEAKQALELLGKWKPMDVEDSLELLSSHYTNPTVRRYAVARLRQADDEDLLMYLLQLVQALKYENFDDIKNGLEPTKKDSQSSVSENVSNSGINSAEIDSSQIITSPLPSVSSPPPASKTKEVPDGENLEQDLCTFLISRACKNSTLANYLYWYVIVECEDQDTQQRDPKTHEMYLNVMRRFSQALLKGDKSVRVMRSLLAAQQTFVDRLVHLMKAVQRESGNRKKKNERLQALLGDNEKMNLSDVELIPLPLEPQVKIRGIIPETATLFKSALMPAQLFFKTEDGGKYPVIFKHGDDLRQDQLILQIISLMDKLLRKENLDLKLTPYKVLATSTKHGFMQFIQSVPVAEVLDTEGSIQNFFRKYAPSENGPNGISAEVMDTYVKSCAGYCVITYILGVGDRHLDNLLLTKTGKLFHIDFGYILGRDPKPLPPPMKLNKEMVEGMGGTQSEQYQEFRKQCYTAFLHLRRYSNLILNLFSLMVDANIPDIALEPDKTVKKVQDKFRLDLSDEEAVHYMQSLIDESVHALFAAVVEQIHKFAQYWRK

In the case of `CC(=O)Nc1cc(-c2nc(-c3cc(CN4CCCC4)ccc3Cl)c(C(N)=O)o2)c(C)cn1` [Compound I-28, 2-(2-acetamido-5-methylpyridin-4-yl)-4-[2-chloro-5-(pyrrolidin-1-ylmethyl)phenyl]-1,3-oxazole-5-carboxamide], the inhibition at 1.111 µM was 81%.

For `CC(=O)Nc1cc(-c2nc(C(=O)NCCc3cn4ccccc4n3)c(-c3ccccc3Cl)o2)c(C)cn1` [Compound I-82, 2-(2-acetamido-5-methylpyridin-4-yl)-5-(2-chlorophenyl)-N-[2-(imidazo[1,2-a]pyridin-2-yl)ethyl]-1,3-oxazole-4-carboxamide], the inhibition at 1.111 µM came to 68%.

For the molecule `COCC(=O)Nc1cc(-c2nc(-c3nnc[nH]3)c(-c3ccccc3Cl)o2)ccn1` [Compound I-87, N-{4-[5-(2-chlorophenyl)-4-(4H-1,2,4-triazol-3-yl)-1,3-oxazol-2-yl]pyridin-2-yl}-2-methoxyacetamide], the inhibition at 1.111 µM was 109%.

As to `CC(=O)Nc1cc(-c2cc(C(=O)NCc3cccnc3)c(-c3ccccc3Cl)o2)c(C)cn1` [Compound I-68, 5-(2-acetamido-5-methylpyridin-4-yl)-2-(2-chlorophenyl)-N-(pyridin-3-ylmethyl)-3-furamide], the inhibition at 1.111 µM was 104%.

As for `CC(=O)Nc1cc(-c2nc(-c3ccccc3Cl)c(C(N)=O)o2)c(C)cn1` [Compound I-5, 2-[2-(acetylamino)-5-methylpyridin-4-yl]-4-(2-chlorophenyl)-1,3-oxazole-5-carboxamide], the inhibition at 1.111 µM was 108%.

Consider `CC(=O)Nc1cc(-c2cc(C(=O)NCc3ccc(N(C)C)cc3)c(-c3ccccc3Cl)o2)c(C)cn1` [Compound I-85, 5-(2-acetamido-5-methylpyridin-4-yl)-2-(2-chlorophenyl)-N-[4-(dimethylamino)benzyl]-3-furamide], for which the inhibition at 1.111 µM turned out to be 56%.

Turning to `C=CCCC(=O)Nc1cc(-c2nc(-c3nnc[nH]3)c(-c3ccccc3Cl)o2)ccn1` [Compound I-43, N-{4-[5-(2-chlorophenyl)-4-(4H-1,2,4-triazol-3-yl)-1,3-oxazol-2-yl]pyridin-2-yl}pent-4-enamide], the inhibition at 1.111 µM worked out at 98%.

Regarding `CC(=O)Nc1cc(-c2nc(C(=O)NCc3ccco3)c(-c3ccccc3Cl)o2)c(C)cn1` [Compound I-9, 2-(2-acetamido-5-methylpyridin-4-yl)-5-(2-chlorophenyl)-N-(2-furylmethyl)-1,3-oxazole-4-carboxamide], the inhibition at 1.111 µM stood at 64%.

Take `CC(=O)Nc1cc(-c2nc(C(=O)NCc3cccs3)c(-c3ccccc3Cl)o2)c(C)cn1` [Compound I-38, 2-(2-acetamido-5-methylpyridin-4-yl)-5-(2-chlorophenyl)-N-(2-thienylmethyl)-1,3-oxazole-4-carboxamide]: the inhibition at 1.111 µM is 43%.

With `Nc1cc(-c2nc(-c3nnc[nH]3)c(-c3ccccc3Cl)o2)ccn1` [Compound I-32, 4-[5-(2-chlorophenyl)-4-(4H-1,2,4-triazol-3-yl)-1,3-oxazol-2-yl]pyridin-2-amine], the inhibition at 1.111 µM was 26%.

Turning to `CC(=O)Nc1cc(-c2cc(C(=O)NCc3ccco3)c(-c3ccccc3Cl)o2)c(C)cn1` [Compound I-88, 5-(2-acetamido-5-methylpyridin-4-yl)-2-(2-chlorophenyl)-N-(2-furylmethyl)-3-furamide], the inhibition at 1.111 µM was found to be 114%.

For `CC(=O)Nc1cc(-c2cc(-c3ncco3)c(-c3ccccc3Cl)o2)c(C)cn1` [Compound I-69, N-{4-[5-(2-chlorophenyl)-4-(1,3-oxazol-2-yl)-2-furyl]-5-methylpyridin-2-yl}acetamide], the inhibition at 1.111 µM turned out to be 144%.

With `Clc1ccccc1-c1oc(-c2ccnc3[nH]ccc23)nc1-c1nnc[nH]1` [Compound I-71, 4-[5-(2-chlorophenyl)-4-(4H-1,2,4-triazol-3-yl)-1,3-oxazol-2-yl]-1H-pyrrolo[2,3-b]pyridine], the inhibition at 1.111 µM came out at 87%.

With `CC(=O)Nc1cc(-c2cc(C(=O)NCCc3cn4ccccc4n3)c(-c3ccccc3Cl)o2)c(C)cn1` [Compound I-41, 5-(2-acetamido-5-methylpyridin-4-yl)-2-(2-chlorophenyl)-N-[2-(imidazo[1,2-a]pyridin-2-yl)ethyl]-3-furamide], the inhibition at 1.111 µM came out at 90%.

Take `CC(=O)Nc1cc(-c2nc(-c3ccccc3Cl)c(-c3cc[nH]n3)o2)c(C)cn1` [Compound I-57, N-{4-[4-(2-chlorophenyl)-5-(1H-pyrazol-3-yl)-1,3-oxazol-2-yl]-5-methylpyridin-2-yl}acetamide]: the inhibition at 1.111 µM was 135%.

With `CC(=O)Nc1cc(-c2cc(C(C)=O)c(-c3ccccc3Cl)o2)c(C)cn1` [Compound I-27, N-{4-[4-acetyl-5-(2-chlorophenyl)-2-furyl]-5-methylpyridin-2-yl}acetamide], the inhibition at 1.111 µM was 133%.

In the case of `CC(=O)Nc1cc(-c2nc(-c3cc[nH]n3)c(-c3ccccc3Cl)o2)c(C)cn1` [Compound I-30, N-{4-[5-(2-chlorophenyl)-4-(1H-pyrazol-3-yl)-1,3-oxazol-2-yl]-5-methylpyridin-2-yl}acetamide], the inhibition at 1.111 µM was found to be 114%.

On to `CC(=O)Nc1cc(-c2cc(-c3nnc[nH]3)c(N3CCCS3(=O)=O)o2)c(C)cn1` [Compound I-17, N-{4-[5-(1,1-dioxidoisothiazolidin-2-yl)-4-(4H-1,2,4-triazol-3-yl)-2-furyl]-5-methylpyridin-2-yl}acetamide], for which the inhibition at 1.111 µM came to 127%.

In the case of `CC(=O)Nc1cc(-c2cc(-c3cc[nH]n3)c(-c3ccccc3Cl)o2)c(C)cn1` [Compound I-48, N-{4-[5-(2-chlorophenyl)-4-(1H-pyrazol-3-yl)-2-furyl]-5-methylpyridin-2-yl}acetamide], the inhibition at 1.111 µM amounted to 130%.

For the molecule `CC(=O)Nc1cc(-c2cc(C(=O)NCCC(C)C)c(-c3ccccc3Cl)o2)c(C)cn1` [Compound I-80, 5-(2-acetamido-5-methylpyridin-4-yl)-2-(2-chlorophenyl)-N-(3-methylbutyl)-3-furamide], the inhibition at 1.111 µM was 92%.

With `CC(=O)Nc1cc(-c2nc(C(=O)NCCn3ccnc3)c(-c3ccccc3Cl)o2)c(C)cn1` [Compound I-70, 2-(2-acetamido-5-methylpyridin-4-yl)-5-(2-chlorophenyl)-N-[2-(1H-imidazol-1-yl)ethyl]-1,3-oxazole-4-carboxamide], the inhibition at 1.111 µM stood at 45%.

`CC(=O)Nc1cc(-c2cc(C(=O)NCc3ccccn3)c(-c3ccccc3Cl)o2)c(C)cn1` [Compound I-44, 5-(2-acetamido-5-methylpyridin-4-yl)-2-(2-chlorophenyl)-N-(pyridin-2-ylmethyl)-3-furamide]: the inhibition at 1.111 µM came out at 150%.

For `CC(=O)Nc1cc(-c2nc(-c3nnc[nH]3)c(-c3ccccc3Cl)o2)c(C)cn1` [Compound I-4, N-{4-[5-(2-chlorophenyl)-4-(4H-1,2,4-triazol-3-yl)-1,3-oxazol-2-yl]-5-methylpyridin-2-yl}acetamide], the inhibition at 1.111 µM is 118%.

As for `CC(=O)Nc1cc(-c2nc(C(=O)NCCOCCO)c(-c3ccccc3Cl)o2)c(C)cn1` [Compound I-25, 2-(2-acetamido-5-methylpyridin-4-yl)-5-(2-chlorophenyl)-N-[2-(2-hydroxyethoxy)ethyl]-1,3-oxazole-4-carboxamide], the inhibition at 1.111 µM is 41%.

Consider `CC(=O)Nc1cc(-c2nc(C(=O)NC(C)C)c(-c3ccccc3Cl)o2)c(C)cn1` [Compound I-21, 2-(2-acetamido-5-methylpyridin-4-yl)-5-(2-chlorophenyl)-N-isopropyl-1,3-oxazole-4-carboxamide], for which the inhibition at 1.111 µM came to 25%.

Regarding `CC(=O)Nc1cc(-c2nc(C(N)=O)c(-c3ccccc3Cl)o2)c(C)cn1` [Compound I-3, 2-[2-(acetylamino)-5-methylpyridin-4-yl]-5-(2-chlorophenyl)-1,3-oxazole-4-carboxamide], the inhibition at 1.111 µM stood at 112%.

In the case of `COC(CNC(=O)c1cc(-c2cc(NC(C)=O)ncc2C)oc1-c1ccccc1Cl)OC` [Compound I-22, 5-(2-acetamido-5-methylpyridin-4-yl)-2-(2-chlorophenyl)-N-(2,2-dimethoxyethyl)-3-furamide], the inhibition at 1.111 µM worked out at 110%.

As for `COCCNC(=O)c1cc(-c2cc(NC(C)=O)ncc2C)oc1-c1ccccc1Cl` [Compound I-29, 5-(2-acetamido-5-methylpyridin-4-yl)-2-(2-chlorophenyl)-N-(2-methoxyethyl)-3-furamide], the inhibition at 1.111 µM was found to be 116%.

Take `COCCC(=O)Nc1cc(-c2nc(-c3nnc[nH]3)c(-c3ccccc3Cl)o2)ccn1` [Compound I-45, N-{4-[5-(2-chlorophenyl)-4-(4H-1,2,4-triazol-3-yl)-1,3-oxazol-2-yl]pyridin-2-yl}-3-methoxypropanamide]: the inhibition at 1.111 µM came out at 104%.

Take `CC(=O)Nc1cc(-c2cc(C(=O)NCCCn3ccnc3)c(-c3ccccc3Cl)o2)c(C)cn1` [Compound I-24, 5-(2-acetamido-5-methylpyridin-4-yl)-2-(2-chlorophenyl)-N-[3-(1H-imidazol-1-yl)propyl]-3-furamide]: the inhibition at 1.111 µM was 102%.

These data come from patent US8859768B2, “Heteroaryls and uses thereof” (Millennium Pharmaceuticals, Inc., priority 2010, dated 2014).
